Read-outs that look alike come from different tables or passages of the source.
Columns and labels:
[1] = test system: HBV DNA replication in HepAD38 cells; experiment: HBV DNA replication inhibition assay in HepAD38 cells (7 days, PCR of supernatant DNA); format: cell-based, hepatitis B virus; conditions: for inhibition at 200 µM: read-out: Anti-HBV activity in HepAD38 cells, % Inh. at 200 µM ± SD
Procedure: HepAD38 cells were seeded at 50,000 cells/well in collagen-coated 96-well plates. […] The experiment lasted 7 days. On day 7, total DNA was purified from the supernatant using a commercially available kit (DNeasy 96 Blood & Tissue kit, Qiagen). The HBV DNA was amplified in a polymerase chain reaction assay using LightCycler 480 II (Roche), as previously described.[63] All samples were tested in duplicate.

[2] = MTT cytotoxicity, PBM cells; format: cell-based, human; conditions: human
Procedure: (§1) Human peripheral blood mononuclear (PBM), T lymphoblast CEM-CCRF (herein referred to as CEM cells), African green monkey kidney (Vero), or human liver carcinoma (HepG2) cells were tested via MTT assay using the CellTiter 96 Non-Radioactive Cell Proliferation (Promega) kit as previously described.[63]

[3] = MTT cytotoxicity, CEM cells; format: cell-based, human; conditions: human
Procedure: as §1

[4] = MTT cytotoxicity, Vero cells; format: cell-based, African green monkey; conditions: African green monkey
Procedure: as §1

[5] = MTT cytotoxicity, HepG2 cells; format: cell-based, human; conditions: human
Procedure: as §1

Cp149 = molecular target: T1, Cp149 (Hepatitis B virus genotype D subtype adw, UniProt P03147); experiment: Tryptophan fluorescence titration; format: binding; conditions: for tryptophan fluorescence quenching: 20 μM Cp149, compound up to 100 μM
T1 construct: The N-terminal domain of Cp (Cp149) is sufficient for forming regular capsids; made in house; host or cells: E. coli BL21(DE3)
Procedure: Each of the compounds was titrated into 100 μL of the protein solution to final concentrations of 0, 5, 10, 20, 50, and 100 μM in a clear bottom 96-well plate. […] Tryptophan fluorescence levels were measured by exciting the samples at 285 nm and measuring the emission at 340 nm with the Varioskan Flash (Thermo Fisher) plate reader. […] Fluorescence quenching was calculated by taking the difference of net fluorescence levels of each concentration and of the 0 μM sample. All the samples were run in triplicate, and the results were averaged. The dissociation constants (KD) were fitted by the one-site-specific binding model of GraphPad.[45]

Cp149 capsid assembly = molecular target: T2, Cp149 capsid assembly (Hepatitis B virus genotype D subtype adw, UniProt P03147); experiment: Transmission electron microscopy of assembled Cp149 products; format: biochemical; conditions: for % abnormal capsids, Trial 1 / % abnormal capsids, Trial 2 / effect on capsid morphology (TEM): 20 μM Cp149, 40 μM compound; for % abnormal capsids, Trial 1 / % abnormal capsids, Trial 2: 500 mM NaCl; for % abnormal capsids, Average: average of two trials
T2 construct: The N-terminal domain of Cp (Cp149) is sufficient for forming regular capsids; made in house; host or cells: E. coli BL21(DE3)
Procedure: The assembled samples of Cp149 were prepared as described in the Size Exclusion Chromatography section. Eight μL of each sample was added onto the 300 mesh Lacey Formvar carbon–copper grids (Ted Pella, Inc.) and allowed to sit for 1.5 min. The grid was then rinsed in 500 mL of deionized water for 10 s twice to rinse off the extra buffer on the grid. After drying, the sample was stained with 8 μL of 2% uranyl acetate for 1 min. After removal and drying of the uranyl acetate solution, the sample was imaged with a Hitachi HT7700 electron microscope at an accelerating voltage of 120 kV, at the IMat Materials Characterization Facility of Georgia Institute of Technology. The images underwent processing using ImageJ software. Initially, to minimize noise, a Gaussian blur filter was applied. These images were then converted into an 8 bit binary format for edge detection. ImageJ identified particles ranging in size from 800 to 2000 pixels. An example of a processed image can be seen in Figure S14. The circularity of each particle was calculated using the formula circularity = 4π × area × perimeter^–2. […] A total of four images, each containing a minimum of 100 capsids, were analyzed to determine the proportion of the abnormal capsids. The entire experiment was duplicated, and the outcomes from both sets were then averaged.

[6] = test system: human peripheral blood mononuclear (PBM) cells; experiment: MTT cytotoxicity, PBM cells; format: cell-based
Procedure: as §1

[7] = test system: T lymphoblast CEM-CCRF (CEM) cells; experiment: MTT cytotoxicity, CEM cells; format: cell-based, human
Procedure: as §1

[8] = test system: human liver carcinoma (HepG2) cells; experiment: MTT cytotoxicity, HepG2 cells; format: cell-based; conditions: HepG2 cells
Procedure: as §1

[9] = MTS cytotoxicity (Table S4)
[10] = test system: African green monkey kidney (Vero) cells; experiment: MTT cytotoxicity, Vero cells; format: cell-based; conditions: Vero cells
Procedure: as §1

[11] = test system: PBM, CEM, Vero and HepG2 cells; experiment: MTT cytotoxicity, four cell lines taken together; format: cell-based
Procedure: as §1

[12] = Hepatitis B virus, HepAD38 cells, 10 μM, trial 1, read-out: % HBV DNA Inh. at 10 μM, trial 1
[13] = Hepatitis B virus, HepAD38 cells, 10 μM, trial 2, read-out: % HBV DNA Inh. at 10 μM, trial 2
[14] = Hepatitis B virus, HepAD38 cells, 10 µM, trial 3, read-out: % HBV DNA Inh. at 10 µM, trial 3
[15] = Hepatitis B virus, HepAD38 cells, 10 µM, trial 4, read-out: % HBV DNA Inh. at 10 µM, trial 4
[16] = Hepatitis B virus, HepAD38 cells, 10 μM, read-out: % inhibition in at least one of the trials
[17] = Hepatitis B virus, HepAD38 cells, trial 1, read-out: EC50, trial 1
[18] = Hepatitis B virus, HepAD38 cells, trial 2, read-out: EC50, trial 2
[19] = Hepatitis B virus, HepAD38 cells, trial 3, read-out: EC50, trial 3
[20] = Hepatitis B virus, HepAD38 cells, trial 4, read-out: EC50, trial 4
[21] = peripheral blood mononuclear (PBM) cells
[22] = T lymphoblast CEM-CCRF (CEM) cells
[23] = Hepatitis B virus, HePAD38, additional testing, Table S4
[24] = Hepatitis B virus, HePAD38, additional testing, Table S4, read-out: Anti-HBV activity in HepAD38 cells, EC50

T2 sequence (P03147 1-149): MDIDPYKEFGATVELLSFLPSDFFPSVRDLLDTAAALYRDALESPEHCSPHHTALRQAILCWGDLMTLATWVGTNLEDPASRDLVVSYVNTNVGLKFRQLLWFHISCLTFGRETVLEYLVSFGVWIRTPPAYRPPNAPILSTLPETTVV
T1 sequence (P03147 1-149): as above

Compound | inhibition at 10 µM [1, 12] [%] | inhibition at 10 µM [1, 13] [%] | inhibition at 10 µM [1, 14] [%] | inhibition at 10 µM [1, 15] [%] | inhibition at 10 µM [1, 16] [%] | EC50 [1, 17] [µM] | EC50 [1, 18] [µM] | EC50 [1, 19] [µM] | EC50 [1, 20] [µM] | CC50 [2, 21] [µM] | CC50 [3, 22] [µM] | CC50 ([4]; Vero cells (kidney)) [µM] | CC50 ([5]; HepG2 cells (liver carcinoma)) [µM] | tryptophan fluorescence quenching (Cp149) | % abnormal capsids, Trial 1 (Cp149 capsid assembly) [%] | % abnormal capsids, Trial 2 (Cp149 capsid assembly) [%] | percent cytotoxicity (cell growth inhibition) at 100 µM [6] [%] | % cytotoxicity at 100 µM (MTT), CEM cells [7] [%] | effect on capsid morphology (TEM) (Cp149 capsid assembly) | % abnormal capsids, Average (Cp149 capsid assembly) [%] | other results
O=C(OCc1ccc(-c2cnc3ccccc3n2)cc1)c1cccs1 [GT-32] | 48 | < 1 | < 1 | < 1 | > 50 | ≥ 10 | > 10 | > 10 | > 100 | 85 | 52 | 44 | 59 | moderate fluorescence quenching | 76 | 85 |  |  |  |  | Kd (Cp149; 20 μM Cp149, single-site fit, read-out: dissociation constant (KD), estimated): 124 µM; Kd (Cp149; one site specific binding model, Table S7, read-out: KD): 124 µM
NCCCC(=O)NCc1nc(-c2cccc(F)c2)c(-c2ccccn2)[nH]1 [GT-45] | 50 | 49 | < 1 | < 1 | > 50 | ≥ 10 | ≥ 10 | > 10 | > 100 | > 100 | > 100 | 66 | > 100 | reproducible but modest fluorescence quenching | 40 | 35 | 41 | 36 | induced misdirected products | 38 | percent cytotoxicity (MTT) at 100 µM, HepG2 [8]: 41%
C[C@@H]1C[C@@H]([C@H](O)CC2CC(=O)NC(=O)C2)C(=O)[C@@H](C)C1 [Cycloheximide, reference compound] |  |  |  |  |  |  |  |  |  |  |  |  |  |  |  |  |  |  |  |  | CC50 [2]: 0.9 µM; CC50 [3]: 0.2 µM; CC50 ([4]; Vero cells): 0.2 µM; CC50 ([5]; HepG2 cells): 0.3 µM
CCOC(=O)c1cc(-c2cc(C(=O)OCC)c3ccccc3n2)nc2ccccc12 [GT-33] | 60 | 37 | < 1 | < 1 | > 50 | < 10 | > 10 | > 10 | > 100 | > 100 | > 100 | 76 | 86 | reproducible but modest fluorescence quenching | 31 | 26 | 5.6 | 32 | induced misdirected products | 29 | 
O=C(NCc1ccc(-c2cccnc2)nc1)c1ccc2nccnc2c1 [GT-46] | 49 | 49 | 2 | 39 | > 50 | ≥ 10 | ≥ 10 | > 10 | > 100 | > 100 | 38 | 53 | 82 | moderate fluorescence quenching |  | 78 | 20 |  |  | 74 | inhibition at 200 µM [1, 23]: 25.6 ± 2.5%; EC50 [1, 24]: > 200 µM; Kd (Cp149; KD, one site specific binding model, Table S7): 263 µM; Kd (Cp149; dissociation constant (KD), estimated, 20 μM Cp149, single-site fit): 263 µM; IC50 (in vitro): > 200 µM; MTS cytotoxicity, % Inh. at 200 µM [9]: < 1%
Cc1ccc2[nH]c(CCNc3nccc(-c4ccccn4)n3)nc2c1C [GT-47] | 49 | 49 | 14 | < 1 | > 50 | ≥ 10 | ≥ 10 | > 10 | > 100 | > 100 | > 100 | > 100 | 18 | reproducible but modest fluorescence quenching | 28 | 23 | 16 | 48 | induced misdirected products | 26 | inhibition at 200 µM [1, 23]: < 1%; EC50 [1, 24]: > 200 µM; % cytotoxicity (MTT) at 100 µM [10]: 31%; toxicity in at least one cell line tested [11]: 16 to 18 µM; IC50 (in vitro): > 200 µM; MTS cytotoxicity, % Inh. at 200 µM [9]: < 1%
Cc1nc(-c2c(-c3ccccc3)ncn2Cc2cccc3[nH]ccc23)c[nH]1 [GT-40] | 55 | 50 | < 1 | < 1 | > 50 | < 10 | 10 | > 10 | > 100 | > 100 | 77 | > 100 | > 100 | No fluorescence quenching was observed | 8 | 11 | 19 |  | no apparent effect | 10 | % cytotoxicity (MTT) at 100 µM [10]: 39%; percent cytotoxicity (MTT) at 100 µM, HepG2 [8]: 30%; KD (Cp149; one site specific binding model, Table S7): No binding
O=C(NCCN1CCOCC1)c1ccc2nc(-c3ccccc3)c(-c3ccccc3)nc2c1 [GT-36] |  |  |  |  |  |  |  |  |  |  |  |  |  |  |  |  |  |  |  |  | % HBV DNA Inh. at 10 μM, trial 1 ([1]; HepAD38 cells, 10 μM, trial 1): 11%; % HBV DNA Inh. at 10 μM, trial 2 ([1]; HepAD38 cells, 10 μM, trial 2): 11%; EC50 ([1]; HepAD38 cells, trial 1, read-out: EC50, trial 1): > 10 µM; EC50 ([1]; HepAD38 cells, trial 2, read-out: EC50, trial 2): > 10 µM; CC50 [6]: 10 µM; CC50 [7]: 18 µM; CC50 [10]: 31 µM; CC50 [8]: 29 µM
Cc1c(CCN)ccc2c1[nH]c1ccccc12 [GT-6] |  |  |  |  |  |  |  |  |  |  |  |  |  |  |  |  |  |  |  |  | HBV DNA inhibition (%) at 10 µM ([1]; HepAD38 cells, 10 µM, first round of selected compounds): 27.2%; CC50 [6]: 47.7 µM; CC50 [7]: 18.7 µM; CC50 [10]: 42.6 µM; CC50 [8]: 14.9 µM

From PMC11019538, “Biophysics-Guided Lead Discovery of HBV Capsid Assembly Modifiers” (ACS Infectious Diseases, 2024)
